{
  "source": "patent US6653344B2",
  "about": "“Pharmaceutical preparations containing a dibenzocyclooctane lignan derivative for treatment of neurodegenerative disease” (Elcom Bio Technology Co., Ltd., priority 2000, dated 2003)",
  "test_system": "nitric oxide (NO) content in glutamate-damaged primary cultured rat cortical cells",
  "experiment": "Measurement of nitrite (Griess reagent), NO content",
  "assay_type": "cell-based",
  "conditions": "compound 1 M (1 μM) for 1 hr before 100 M glutamate, 24 hr",
  "procedure": "The content of nitrite isolated into culture broth from first cultured cortical cells was assayed by using Griess reagent by Dawson's method (Dawson V L, Brahbhatt H P, Mong J A and Dawson T M (1994) Expression of inducible nitric oxide synthase causes delayed neurotoxicity in primary neuronal-glial cortical cultures. Neuropharmacology 33: 1425-1430).\nIn case glutamate is treated to first cultured cortical cells of mice, formation of NO is increased. […] When schizandrin is treated at the 1 μM concentration, it decreased NO content increased by glutamate. […] When deoxyschizandrin, gomisin N and wuweizisu C are treated at 1 uM concentration to first cultured cortical cells toxicity-induced by glutamate, those maintained about 50% of normal state activity of GSH-px and glutathione decreased by glutamate and have protective activity on the activity of antioxidant enzymes.\nRat cortical cultures were treated with compounds at the concentration of 1 M for 1 hr before exposure to 100 M glutamate and then maintained for 24 hr. Values given represent the mean SD (n=3).",
  "data": [
    {"molecule": "COc1cc2c(c(OC)c1OC)-c1c(cc(OC)c(OC)c1OC)C[C@](C)(O)[C@@H](C)C2", "note": "[schizandrin]", "values": [
      {"measurement": "Protection (NO content)", "result": 40.2, "unit": "%"}
    ]}
  ]
}
